What was measured:
[1] = biological target: full length human FXR protein (Homo sapiens (Human), UniProt Q96RI1); experiment: FXR cellular assay (FXR-SRCP β-gal enzyme fragment complementation in CHO-K1 cells, chemiluminescence); type: cell-based; details: CHO-K1 cells with SRCP-EA and ProLink-labeled FXR, 0-10 micromolar compound, 37° C. for 6h, read-out: EC50 FXR-cell Luminescence/
Description: A cell based FXR assay was used to detect protein-protein interactions between an activated (ligand-bound), full length human FXR protein and a nuclear fusion protein containing a Steroid Receptor Coactivator Peptide (SCRP) domain. In this approach, two weakly complementing fragments of the 3-gal enzyme were expressed within stably transfected Chinese Hamster Ovary (CHO-K1) cells. The complementing fragments of the 3-gal enzyme (ProLink, PK; and Enzyme Acceptor, EA) were translationally fused to the C-terminus of a full-length FXR and to the SRCP, respectively. Complementation was driven by the protein-protein interaction between SRCP-EA and a ProLink-labeled FXR. Upon FXR-SRCP binding, the two fragments of 3-gal complement, forming a functional enzyme capable of hydrolyzing a substrate molecule and generating a chemiluminescent signal.
CHO-K1 cells containing SRCP-EA and ProLink-labeled FXR were plated in 384-well microplates and incubated at 37° C. overnight. A positive control FXR agonist, GW4064 (0-10 micromolar), or test compounds (0-10 micromolar) were added to plated cells and incubated at 37° C. for 6h (final DMSO vehicle concentration was 1%). The assay signal was generated by addition of 50% (v/v) detection reagent (19:5:1, cell assay buffer: substrate reagent 1: substrate reagent 2, DiscoverX) followed by incubation for 1h at ambient room temperature. Microplates were analyzed using an Envision reader (PerkinElmer Life and Analytical Sciences, Signal=chemiluminescence).

[2] = biological target: ligand binding domain (LBD) of recombinant human FXR (Homo sapiens (Human), UniProt Q96RI1); experiment: FXR cell free coactivator (SRC-1) recruitment assay, TR-FRET; details: FXR LBD (amino acids 244-476) with labeled SRC-1 domain, 25° C. for 60 minutes, activity relative to CDCA maximum; read-out: EC50 FXR- Biochemical TR-FRET/μM
Chain of ligand binding domain (LBD) of recombinant human FXR (Q96RI1 254-486): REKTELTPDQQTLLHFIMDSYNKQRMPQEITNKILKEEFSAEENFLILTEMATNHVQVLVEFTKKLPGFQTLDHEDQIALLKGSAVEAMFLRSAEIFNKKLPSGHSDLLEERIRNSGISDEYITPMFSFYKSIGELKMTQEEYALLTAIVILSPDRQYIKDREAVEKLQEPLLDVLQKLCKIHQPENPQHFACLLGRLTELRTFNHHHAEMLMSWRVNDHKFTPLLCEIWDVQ
Chain of ligand binding domain (LBD) of recombinant human FXR (Q15788 whole entry partner, the tested form may be a part): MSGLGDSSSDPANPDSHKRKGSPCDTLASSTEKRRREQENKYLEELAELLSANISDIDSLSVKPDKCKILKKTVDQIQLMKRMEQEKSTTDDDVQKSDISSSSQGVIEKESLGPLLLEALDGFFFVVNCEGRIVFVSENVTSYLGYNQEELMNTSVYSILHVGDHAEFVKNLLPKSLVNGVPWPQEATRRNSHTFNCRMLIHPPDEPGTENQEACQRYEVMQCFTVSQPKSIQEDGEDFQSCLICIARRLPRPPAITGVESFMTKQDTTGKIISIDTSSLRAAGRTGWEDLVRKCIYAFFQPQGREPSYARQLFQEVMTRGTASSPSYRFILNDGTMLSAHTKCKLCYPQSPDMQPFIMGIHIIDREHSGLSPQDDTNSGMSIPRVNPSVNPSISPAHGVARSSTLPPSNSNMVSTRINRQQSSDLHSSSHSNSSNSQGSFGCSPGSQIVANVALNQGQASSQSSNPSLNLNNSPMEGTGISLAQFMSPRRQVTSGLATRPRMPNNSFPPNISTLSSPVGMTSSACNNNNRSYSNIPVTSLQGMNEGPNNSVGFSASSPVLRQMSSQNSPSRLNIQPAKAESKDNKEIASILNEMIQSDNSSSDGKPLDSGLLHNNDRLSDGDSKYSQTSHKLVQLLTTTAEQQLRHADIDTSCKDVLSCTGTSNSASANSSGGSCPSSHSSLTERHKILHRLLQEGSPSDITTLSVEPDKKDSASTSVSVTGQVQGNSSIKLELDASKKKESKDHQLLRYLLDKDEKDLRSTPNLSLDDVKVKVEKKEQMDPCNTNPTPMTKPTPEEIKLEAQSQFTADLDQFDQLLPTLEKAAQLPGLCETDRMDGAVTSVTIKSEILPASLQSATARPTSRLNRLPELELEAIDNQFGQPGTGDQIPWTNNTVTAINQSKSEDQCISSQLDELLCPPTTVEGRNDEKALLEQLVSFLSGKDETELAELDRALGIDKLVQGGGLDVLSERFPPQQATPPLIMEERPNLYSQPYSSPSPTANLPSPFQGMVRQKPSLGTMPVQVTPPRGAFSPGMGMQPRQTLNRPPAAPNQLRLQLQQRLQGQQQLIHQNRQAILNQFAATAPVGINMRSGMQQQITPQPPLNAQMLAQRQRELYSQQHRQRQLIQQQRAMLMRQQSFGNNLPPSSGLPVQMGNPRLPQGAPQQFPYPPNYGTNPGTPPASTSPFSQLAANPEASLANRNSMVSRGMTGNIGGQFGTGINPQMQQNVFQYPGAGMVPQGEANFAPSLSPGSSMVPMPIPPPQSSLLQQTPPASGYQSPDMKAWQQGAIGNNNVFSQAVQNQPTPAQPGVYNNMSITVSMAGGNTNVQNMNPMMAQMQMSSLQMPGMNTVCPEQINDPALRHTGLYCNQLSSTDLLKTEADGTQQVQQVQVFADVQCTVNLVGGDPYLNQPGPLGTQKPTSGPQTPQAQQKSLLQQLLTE
Experimental: A cell free coactivator recruitment assay was developed for FXR, to measure the functional potency of novel FXR compounds. In this assay, novel FXR compounds were bound to the ligand binding domain (LBD) of recombinant human FXR. The ability of this liganded homodimeric complex to recruit the co-activator protein steroid receptor coactivator 1 (SRC-1) was measured using Time-Resolved Fluorescence Resonance Energy Transfer (TR-FRET).
The LBD of human FXR (amino acids 244-476) was cloned into an expression vector for protein expression in SF9 insect cells. Purified FXR LBD was incubated in TR-FRET coregulator buffer G (Eurofins) with test compounds (0-10 micromolar) and a labeled nuclear receptor interaction domain of SRC-1 at 25° C. for 60 minutes (final DMSO vehicle concentration was 1.2%). Assays were analyzed using an Envision TR-FRET reader (PerkinElmer Life and Analytical Sciences). Compound activity at each concentration was defined as a percentage of the maximal activity of the natural FXR ligand agonist chenodeoxycholic acid (CDCA) generating a dose response curve.

Chain of full length human FXR protein (Q96RI1 whole entry, the tested form may be a part): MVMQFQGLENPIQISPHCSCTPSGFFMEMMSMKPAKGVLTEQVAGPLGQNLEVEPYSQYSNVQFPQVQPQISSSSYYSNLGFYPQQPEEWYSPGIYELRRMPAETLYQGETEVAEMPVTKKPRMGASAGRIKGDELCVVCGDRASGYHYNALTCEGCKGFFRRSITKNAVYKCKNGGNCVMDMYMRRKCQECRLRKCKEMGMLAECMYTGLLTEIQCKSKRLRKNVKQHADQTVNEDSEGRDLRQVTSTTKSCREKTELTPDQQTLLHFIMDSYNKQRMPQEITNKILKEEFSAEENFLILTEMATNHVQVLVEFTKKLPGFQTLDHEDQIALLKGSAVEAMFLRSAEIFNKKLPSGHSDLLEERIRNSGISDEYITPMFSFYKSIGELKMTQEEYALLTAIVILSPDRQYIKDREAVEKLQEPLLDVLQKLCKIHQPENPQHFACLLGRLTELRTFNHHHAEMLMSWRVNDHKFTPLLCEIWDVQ

Compound | EC50 [1] [nM] | EC50 [2] [µM]
O=c1cc(-c2ccc(N3CCC(OCc4c(-c5ccccc5OC(F)(F)F)noc4C4CC4)CC3)nc2)o[nH]1 [Example 60, 5-(6-(4-((5-cyclopropyl-3-(2-(trifluoromethoxy)phenyl)isoxazol-4-yl)methoxy)piperidin-1-yl)pyridin-3-yl)isoxazol-3(2H)-one] | 779 | 0.104
O=c1[nH]nc(-c2ccc(N3CCC(OCc4c(-c5ccccc5OC(F)(F)F)noc4C4CC4)CC3)cc2)o1 [Example 51, 5-(4-(4-((5-cyclopropyl-3-(2-(trifluoromethoxy)phenyl)isoxazol-4-yl)methoxy)piperidin-1-yl)phenyl)-1,3,4-oxadiazol-2(3H)-one] | 1290 | 0.325
O=c1[nH]c(-c2coc(N3CCC(OCc4c(-c5c(Cl)cccc5Cl)noc4C4CC4)CC3)n2)no1 [Example 29, 3-(2-(4-((5-cyclopropyl-3-(2,6-dichlorophenyl)isoxazol-4-yl)methoxy)piperidin-1-yl)oxazol-4-yl)-1,2,4-oxadiazol-5(4H)-one] | 3190 | 0.231
O=c1[nH]c(-c2ccc(N3CC(OCc4c(-c5c(Cl)cccc5Cl)noc4C4CC4)C3)cc2)no1 [Example 19, 3-(4-(3-((5-cyclopropyl-3-(2,6-dichlorophenyl)isoxazol-4-yl)methoxy)azetidin-1-yl)phenyl)-1,2,4-oxadiazol-5(4H)-one] | 840 | 0.122
O=c1[nH]c(-c2ccc(N3[C@@H]4CC[C@H]3C[C@@H](OCc3c(-c5ccccc5OC(F)(F)F)noc3C3CC3)C4)cc2)no1 [Example 50, 3-(4-((1R,3r,5S)-3-((5-cyclopropyl-3-(2-(trifluoromethoxy)phenyl)isoxazol-4-yl)methoxy)-8-azabicyclo[3.2.1]octan-8-yl)phenyl)-1,2,4-oxadiazol-5(4H)-one] | 53.8 | 0.0032
O=c1[nH]c(-c2csc(N3CCC(OCc4c(-c5c(Cl)cccc5Cl)noc4C4CC4)CC3)c2)no1 [Example 38, 3-(5-(4-((5-cyclopropyl-3-(2,6-dichlorophenyl)isoxazol-4-yl)methoxy)piperidin-1-yl)thiophen-3-yl)-1,2,4-oxadiazol-5(4H)-one] | 263 | 0.0286
O=c1[nH]c(-c2ccc(N3CCC(OCc4c(-c5c(F)cccc5F)noc4C4CC4)C(F)(F)C3)cc2)no1 (centres unmarked) [Example 55, 3-(4-(4-((5-cyclopropyl-3-(2,6-difluorophenyl)isoxazol-4-yl)methoxy)-3,3-difluoropiperidin-1-yl)phenyl)-1,2,4-oxadiazol-5(4H)-one] | 852 | 0.174
C[C@@H]1C[C@H](OCc2c(-c3ccccc3Cl)noc2C2CC2)CCN1c1ccc(-c2noc(=O)[nH]2)cn1 [Example 72, 3-(6-((2R,4R)-4-((3-(2-chlorophenyl)-5-cyclopropylisoxazol-4-yl)methoxy)-2-methylpiperidin-1-yl)pyridin-3-yl)-1,2,4-oxadiazol-5(4H)-one] | 54.9 | 0.0045
C[C@@H]1CN(c2ccc(-c3noc(=O)[nH]3)cc2)CC[C@H]1OCc1c(-c2c(Cl)cccc2Cl)noc1C1CC1 [Example 34, 3-(4-((3R,4R)-4-((5-cyclopropyl-3-(2,6-dichlorophenyl)isoxazol-4-yl)methoxy)-3-methylpiperidin-1-yl)phenyl)-1,2,4-oxadiazol-5(4H)-one] | 785 | 0.153
O=c1[nH]nc(-c2ccc(N3CCC(OCc4c(-c5ccccc5OC(F)(F)F)noc4C4CC4)CC3)nc2)o1 [Example 61, 5-(6-(4-((5-cyclopropyl-3-(2-(trifluoromethoxy)phenyl)isoxazol-4-yl)methoxy)piperidin-1-yl)pyridin-3-yl)-1,3,4-oxadiazol-2(3H)-one] | 1920 | 0.298
O=c1cc(-c2ccc(N3CCC(OCc4c(-c5c(Cl)cccc5Cl)noc4C4CC4)CC3)nc2)o[nH]1 [Example 59, 5-(6-(4-((5-cyclopropyl-3-(2,6-dichlorophenyl)isoxazol-4-yl)methoxy)piperidin-1-yl)pyridin-3-yl)isoxazol-3(2H)-one] | 264 | 0.0179
O=c1[nH]c(-c2n[nH]c(N3CCC(OCc4c(-c5c(Cl)cccc5Cl)noc4C4CC4)CC3)n2)no1 [Example 45, 3-(5-(4-((5-cyclopropyl-3-(2,6-dichlorophenyl)isoxazol-4-yl)methoxy)piperidin-1-yl)-1H-1,2,4-triazol-3-yl)-1,2,4-oxadiazol-5(4H)-one] | 10000 | 0.61
C[C@H]1CN(c2ccc(-c3noc(=O)[nH]3)cc2)CC[C@H]1OCc1c(-c2c(Cl)cccc2Cl)noc1C1CC1 [Example 32, 3-(4-((3S,4R)-4-((5-cyclopropyl-3-(2,6-dichlorophenyl)isoxazol-4-yl)methoxy)-3-methylpiperidin-1-yl)phenyl)-1,2,4-oxadiazol-5(4H)-one] | 195 | 0.0126
Cc1cc(N2CCC(OCc3c(-c4c(Cl)cccc4Cl)noc3C3CC3)CC2)ccc1-c1noc(=O)[nH]1 [Example 11, 3-(4-(4-((5-cyclopropyl-3-(2,6-dichlorophenyl)isoxazol-4-yl)methoxy)piperidin-1-yl)-2-methylphenyl)-1,2,4-oxadiazol-5(4H)-one] | 280 | 0.0219
O=c1cn[nH]c(=O)n1-c1ccc(N2CCC(OCc3c(-c4c(Cl)cccc4Cl)noc3C3CC3)CC2)nc1 [Example 4, 4-(6-(4-((5-cyclopropyl-3-(2,6-dichlorophenyl)isoxazol-4-yl)methoxy)piperidin-1-yl)pyridin-3-yl)-1,2,4-triazine-3,5(2H,4H)-dione] | 1470 | 0.22
Cn1nc(N2CCC(OCc3c(-c4c(Cl)cccc4Cl)noc3C3CC3)CC2)cc1-c1noc(=O)[nH]1 [Example 70, 3-(3-(4-((5-cyclopropyl-3-(2,6-dichlorophenyl)isoxazol-4-yl)methoxy)piperidin-1-yl)-1-methyl-1H-pyrazol-5-yl)-1,2,4-oxadiazol-5(4H)-one] | > 10000 | 0.233
O=c1[nH]c(-c2ncc(N3CCC(OCc4c(-c5c(Cl)cccc5Cl)noc4C4CC4)CC3)cn2)no1 [Example 8, 3-(5-(4-((5-cyclopropyl-3-(2,6-dichlorophenyl)isoxazol-4-yl)methoxy)piperidin-1-yl)pyrimidin-2-yl)-1,2,4-oxadiazol-5(4H)-one] | 2110 | 0.0281
O=c1[nH]nc(-c2ccc(N3CCC(OCc4c(-c5c(Cl)cccc5Cl)noc4C4CC4)CC3)cc2)c(=O)[nH]1 [Example 10, 6-(4-(4-((5-cyclopropyl-3-(2,6-dichlorophenyl)isoxazol-4-yl)methoxy)piperidin-1-yl)phenyl)-1,2,4-triazine-3,5(2H,4H)-dione] | 409 | 0.0091
O=c1[nH]nc(-c2ccc(N3CCC(OCc4c(-c5c(Cl)cccc5Cl)noc4C4CC4)CC3)nc2)c(=O)[nH]1 [Example 43, 6-(6-(4-((5-cyclopropyl-3-(2,6-dichlorophenyl)isoxazol-4-yl)methoxy)piperidin-1-yl)pyridin-3-yl)-1,2,4-triazine-3,5(2H,4H)-dione] | 248 | 0.0112
O=c1[nH]c(-c2cnc(N3CCC(OCc4c(-c5c(Cl)cccc5Cl)noc4C4CC4)CC3)nc2)no1 [Example 5, 3-(2-(4-((5-cyclopropyl-3-(2,6-dichlorophenyl)isoxazol-4-yl)methoxy)piperidin-1-yl)pyrimidin-5-yl)-1,2,4-oxadiazol-5(4H)-one] | 2530 | 0.031
O=c1[nH]c(-c2ccc(N3CCCC(OCc4c(-c5c(F)cccc5F)noc4C4CC4)CC3)cc2)no1 (centres unmarked) [Example 49, 3-(4-(4-((5-cyclopropyl-3-(2,6-difluorophenyl)isoxazol-4-yl)methoxy)azepan-1-yl)phenyl)-1,2,4-oxadiazol-5(4H)-one] | 149 | 0.0117
O=c1[nH]nc(-c2ccc(N3CCC(OCc4c(-c5c(Cl)cccc5Cl)noc4C4CC4)CC3)cc2F)o1 [Example 48, 5-(4-(4-((5-cyclopropyl-3-(2,6-dichlorophenyl)isoxazol-4-yl)methoxy)piperidin-1-yl)-2-fluorophenyl)-1,3,4-oxadiazol-2(3H)-one] | 336 | 0.0416

Source: patent publication US20240116912A1, “COMPOUNDS AND METHODS FOR MODULATING FXR” (Terns Pharmaceuticals, Inc., priority 2020, published 2024)
